Laboratory results published in patent publication US20020137929A1, “1 - (3-heterocyclylphenyl) isothiourea, -isourea, -guanidine and -amidine herbicidal agents” (Intellectual Property Department, BASF Aktiengesellschaft, priority 1998, published 2002).

Key:
[1] = system: IPOHE (Morningglory, Ivyleaf); assay: Preemergence herbicidal evaluation; assay type: in vivo, Ipomoea hederacea; details: rated 4-5 weeks after treatment
Procedure, shortened: (§1)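 Visual 0-9 rating vs control (stand, vigor, malformation, size, chlorosis, overall appearance), scored 4-5 wk after spraying. Seeded soil cups were treated preemergence with compound in aqueous acetone, ~0.0156-0.500 kg/ha equivalent.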

AMBEL (Ragweed, Common) [2] = assay: Postemergence herbicidal evaluation; assay type: in vivo, Ambrosia artemisifolia; details: postemergence
Procedure, shortened: (§2)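 Visual 0-9 injury score (stand, vigor, malformation, size, chlorosis, appearance vs untreated) taken four to five weeks post-spray, averaged across repeat tests. Test plants about two weeks old; foliar spray of acetone/water (1:1) with 0.5% surfactant delivering ~0.0156-0.500 kg active/ha.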

ECHCG (Barnyardgrass) = assay: Postemergence herbicidal evaluation; assay type: in vivo, Echinochloa crus-galli; details: postemergence
Procedure, shortened: as §2

ABUTH (Velvetleaf) = assay: Preemergence herbicidal evaluation; assay type: in vivo, Abutilon theophrasti; details: rated 4-5 weeks after treatment
Procedure, shortened: as §1

AMBEL (Ragweed, Common) [3] = assay: Preemergence herbicidal evaluation; assay type: in vivo, Ambrosia artemisifolia; details: rated 4-5 weeks after treatment
Procedure, shortened: as §1

[4] = system: IPOHE (Morningglory, Ivyleaf); assay: Postemergence herbicidal evaluation; assay type: in vivo, Ipomoea hederacea; details: postemergence
Procedure, shortened: as §2

[5] = system: TRZAWR (Wheat, Winter, cv Riband); assay: Postemergence herbicidal evaluation; assay type: in vivo, Triticum aestivum; details: postemergence
Procedure, shortened: as §2

CASOB (Sicklepod) [6] = assay: Preemergence herbicidal evaluation; assay type: in vivo, Cassia obtusifolia; details: rated 4-5 weeks after treatment
Procedure, shortened: as §1

[7] = system: CHEAL (Lambsquarters, Common); assay: Preemergence herbicidal evaluation; assay type: in vivo, Chenopodium album; details: rated 4-5 weeks after treatment
Procedure, shortened: as §1

[8] = system: GLXMAW (Soybean, Williams); assay: Postemergence herbicidal evaluation; assay type: in vivo, Glycine max, (L.) Merr. cv Williams; details: postemergence
Procedure, shortened: as §2

CASOB (Sicklepod) [9] = assay: Postemergence herbicidal evaluation; assay type: in vivo, Cassia obtusifolia; details: postemergence
Procedure, shortened: as §2

[10] = system: CHEAL (Lambsquarters, Common); assay: Postemergence herbicidal evaluation; assay type: in vivo, Chenopodium album; details: postemergence
Procedure, shortened: as §2

ORYSAT (Rice, Tebonnet) = assay: Preemergence herbicidal evaluation; assay type: in vivo, Oryza sativa, (L.) Tebonnet; details: rated 4-5 weeks after treatment
Procedure, shortened: as §1

[11] = system: GLXMAW (Soybean, Williams); assay: Preemergence herbicidal evaluation; assay type: in vivo, Glycine max, (L.) Merr. cv Williams; details: rated 4-5 weeks after treatment
Procedure, shortened: as §1

[12] = system: SAGPY (Arrowhead (Pygmaea)); assay: Preemergence weed control under flooded paddy conditions; assay type: in vivo, Sagittaria pygmaea; details: rated 3-4 weeks after treatment
Procedure, shortened: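 Ratings on a 0-9 visual scale cover stand, vigor, malformation, size, chlorosis and overall appearance relative to a control, taken three to four weeks post-treatment. Application was into flood water over freshly sown silt loam at roughly 0.0313 to 0.500 kg/ha.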

Compound: Cn1c(C(F)(F)F)cc(=O)n(-c2cc(N=C3SCC(=O)N3[C@H](Cc3ccccc3)C(=O)O)c(Cl)cc2F)c1=O [Compound 69, α-Benzyl-2-{{2-chloro-5-[3,6-dihydro-3-methyl-2,6-dioxo-4-(trifluoromethyl)-1(2H)-pyrimidinyl]-4-fluorophenyl}imino}-4-oxo-3-thiazolidineacetic acid, D-]
- Preemergence herbicidal rating IPOHE ([1]; rate 0.0313 kg/ha): 0.0
- Preemergence herbicidal rating IPOHE ([1]; rate 0.0625 kg/ha): 2.0
- Preemergence herbicidal rating IPOHE ([1]; rate 0.1250 kg/ha): 1.0
- Preemergence herbicidal rating IPOHE ([1]; rate 0.2500 kg/ha): 4.0
- AMBEL herbicidal rating (AMBEL (Ragweed, Common) [2]; rate 0.0158 kg/ha): 9.0
- AMBEL herbicidal rating (AMBEL (Ragweed, Common) [2]; rate 0.0315 kg/ha): 9.0
- AMBEL herbicidal rating (AMBEL (Ragweed, Common) [2]; rate 0.0630 kg/ha): 9.0
- ECHCG herbicidal rating (ECHCG (Barnyardgrass); rate 0.0158 kg/ha): 2.0
- ECHCG herbicidal rating (ECHCG (Barnyardgrass); rate 0.0315 kg/ha): 1.0
- ECHCG herbicidal rating (ECHCG (Barnyardgrass); rate 0.0630 kg/ha): 4.0
- Preemergence herbicidal rating ABUTH (ABUTH (Velvetleaf); rate 0.0156 kg/ha): 0.0
- Preemergence herbicidal rating ABUTH (ABUTH (Velvetleaf); rate 0.0313 kg/ha): 0.0
- Preemergence herbicidal rating ABUTH (ABUTH (Velvetleaf); rate 0.0625 kg/ha): 9.0
- Preemergence herbicidal rating ABUTH (ABUTH (Velvetleaf); rate 0.1250 kg/ha): 9.0
- Preemergence herbicidal rating ABUTH (ABUTH (Velvetleaf); rate 0.2500 kg/ha): 9.0
- Preemergence herbicidal rating AMBEL (AMBEL (Ragweed, Common) [3]; rate 0.0156 kg/ha): 0.0
- Preemergence herbicidal rating AMBEL (AMBEL (Ragweed, Common) [3]; rate 0.0313 kg/ha): 4.0
- Preemergence herbicidal rating AMBEL (AMBEL (Ragweed, Common) [3]; rate 0.0625 kg/ha): 5.0
- Preemergence herbicidal rating AMBEL (AMBEL (Ragweed, Common) [3]; rate 0.1250 kg/ha): 9.0
- Preemergence herbicidal rating AMBEL (AMBEL (Ragweed, Common) [3]; rate 0.2500 kg/ha): 7.0
- IPOHE herbicidal rating ([4]; rate 0.0158 kg/ha): 9.0
- IPOHE herbicidal rating ([4]; rate 0.0315 kg/ha): 9.0
- IPOHE herbicidal rating ([4]; rate 0.0630 kg/ha): 9.0
- TRZAWR herbicidal rating ([5]; rate 0.0158 kg/ha): 3.0
- TRZAWR herbicidal rating ([5]; rate 0.0315 kg/ha): 3.0
- TRZAWR herbicidal rating ([5]; rate 0.0630 kg/ha): 4.5
- Preemergence herbicidal rating CASOB (CASOB (Sicklepod) [6]; rate 0.0156 kg/ha): 0.0
- Preemergence herbicidal rating CASOB (CASOB (Sicklepod) [6]; rate 0.0313 kg/ha): 0.0
- Preemergence herbicidal rating CASOB (CASOB (Sicklepod) [6]; rate 0.0625 kg/ha): 0.0
- Preemergence herbicidal rating CASOB (CASOB (Sicklepod) [6]; rate 0.1250 kg/ha): 1.0
- Preemergence herbicidal rating CASOB (CASOB (Sicklepod) [6]; rate 0.2500 kg/ha): 5.0
- Preemergence herbicidal rating CHEAL ([7]; rate 0.0156 kg/ha): 9.0
- Preemergence herbicidal rating CHEAL ([7]; rate 0.0313 kg/ha): 9.0
- Preemergence herbicidal rating CHEAL ([7]; rate 0.0625 kg/ha): 9.0
- Preemergence herbicidal rating CHEAL ([7]; rate 0.1250 kg/ha): 9.0
- Preemergence herbicidal rating CHEAL ([7]; rate 0.2500 kg/ha): 9.0
- GLXMAW herbicidal rating ([8]; rate 0.0158 kg/ha): 5.5
- GLXMAW herbicidal rating ([8]; rate 0.0315 kg/ha): 6.0
- GLXMAW herbicidal rating ([8]; rate 0.0630 kg/ha): 6.0
- CASOB herbicidal rating (CASOB (Sicklepod) [9]; rate 0.0158 kg/ha): 1.0
- CASOB herbicidal rating (CASOB (Sicklepod) [9]; rate 0.0315 kg/ha): 2.0
- CASOB herbicidal rating (CASOB (Sicklepod) [9]; rate 0.0630 kg/ha): 2.0
- CHEAL herbicidal rating ([10]; rate 0.0158 kg/ha): 7.0
- CHEAL herbicidal rating ([10]; rate 0.0315 kg/ha): 9.0
- Preemergence herbicidal rating ORYSAT (ORYSAT (Rice, Tebonnet); rate 0.0156 kg/ha): 0.0
- Preemergence herbicidal rating ORYSAT (ORYSAT (Rice, Tebonnet); rate 0.0313 kg/ha): 0.0
- Preemergence herbicidal rating ORYSAT (ORYSAT (Rice, Tebonnet); rate 0.0625 kg/ha): 0.0
- Preemergence herbicidal rating ORYSAT (ORYSAT (Rice, Tebonnet); rate 0.1250 kg/ha): 1.0
- Preemergence herbicidal rating ORYSAT (ORYSAT (Rice, Tebonnet); rate 0.2500 kg/ha): 1.0
- Preemergence herbicidal rating GLXMAW ([11]; rate 0.0156 kg/ha): 1.0
- Preemergence herbicidal rating GLXMAW ([11]; rate 0.0313 kg/ha): 0.0
- Preemergence herbicidal rating GLXMAW ([11]; rate 0.0625 kg/ha): 0.0
- Preemergence herbicidal rating GLXMAW ([11]; rate 0.1250 kg/ha): 1.0
- Preemergence herbicidal rating GLXMAW ([11]; rate 0.2500 kg/ha): 2.0
- SAGPY herbicidal effect rating ([12]; 0.0313 kg/ha): 0.0
- SAGPY herbicidal effect rating ([12]; 0.0625 kg/ha): 0.0
- SAGPY herbicidal effect rating ([12]; 0.1250 kg/ha): 3.0
- SAGPY herbicidal effect rating ([12]; 0.2500 kg/ha): 3.0
